Assay [1] is described as follows: Binding affinity to apoferritin by isothermal titration calorimetry. In general terms: ITC needs no label: the signal is the heat of the interaction.
The nature of assay [2]: Agonist activity at GABAA assessed as enhancement of channel current. In kind it is functional.

The structures appear in SMILES notation.

One may read the pEC50 as −log10 of the EC50, conventionally taken in molar units. Read a high pEC50 as a low EC50. Broadly, the Kd is a measure of binding affinity in units of concentration.

With `CCc1cccc(CC)c1N=C=S`, the pEC50 in assay [1] amounted to 4.8. On the same count and under the same terms, the value for `CCc1cccc(CC)c1N=C=O` was 4.6; that for `CC(C)c1cc(O)c(O)c(C(C)C)c1` was 4.4; that for `CCc1cccc(CC)c1Br` was 4.7. Still for that read-out and setting: the value for `CCC(C)c1ccc(O)c(C(C)CC)c1` (centres undefined) was 4.5; that for `Cc1cccc(C(C)(C)C)c1O` was 6.3.

In the case of `CCc1cccc(CC)c1O`, the pEC50 in assay [1] is 4.9. Moreover, in assay [2], the dissociation constant Kd is 0.31 µM. For the compound `CC(C)c1ccccc1O`, in assay [1], the pEC50 came to 4.4. Also, in assay [2], the Kd is 0.5 µM. The matching figures for `Cc1cccc(C)c1O`: 3.9 and 0.36 µM. `CC(C)(C)c1cc(O)cc(C(C)(C)C)c1` had a pEC50 in assay [1] of 4. Consider `CCC(C)c1cccc(C(C)CC)c1O` (centres undefined), for which the pEC50 in assay [1] is 5.6.

In assay [1], `CC(C)c1cc(I)cc(C(C)C)c1O` had a pEC50 of 5.

In turn, `Oc1ccccc1` [PHENOL] showed a pEC50 in assay [1] of 3. The Kd in assay [2] was determined as 3.8 µM. As for `CC(C)c1cccc(C(C)C)c1O` [PROPOFOL], the pEC50 in assay [1] came out at 5.7. In assay [2], the Kd worked out at 0.23 µM.

Source of the values: ChEMBL document CHEMBL1155248, “Structure-based shape pharmacophore modeling for the discovery of novel anesthetic compounds” (Bioorg Med Chem, 2009).
